# Patent US20240059703A1 (AMGEN INC., priority 2021, published 2024)
# Experiments:
# [1] = biological target: KRAS G12C (Homo sapiens (Human), UniProt P01116, C118A/G12C); assay: 2 h coupled exchange assay; assay type: biochemical; conditions: Avg 2 h Coupled exchange IC50, 2 h compound pre-incubation
# Experimental: The term “2 h coupled exchange assay” or “20 h coupled exchange assay” as used herein refers to the assay described in the Section entitled “BIOLOGICAL EVALUATION.”
# [2] = tested on: MIA PaCa-2 (human pancreatic carcinoma) cells; assay: Cell Viability Assay (CellTiter-Glo), MIA PaCa-2; assay type: cell-based
# Experimental: Serially-diluted compound or DMSO was added to the cells, and plates were incubated at 37° C., 5% CO2 for 72 h. Cell viability was measured using a CellTiter-Glo® Luminescent Cell Viability Assay kit (Promega) according to the manufacturer's protocol. The luminescence signal of treated samples was normalized to DMSO control, and data were analyzed using a 4-parameter logistic model to calculate IC50 values.
# [3] = tested on: A549 (human lung carcinoma) cells; assay: Cell Viability Assay (CellTiter-Glo), A549; assay type: cell-based
# Outline: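 Cells grown in RPMI 1640 with 10% FBS were seeded at 1.67E+04 cells/mL and left overnight at 37° C., 5% CO2. They were then exposed to serially diluted compound for 72 h, after which CellTiter-Glo luminescence was read, normalized to DMSO, and fitted to a 4-parameter logistic model for IC50.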
# [4] = SOS-mediated nucleotide exchange
# Chain of KRAS G12C (P01116 other isoform, or with tags, fused parts or gaps G12C/C118A): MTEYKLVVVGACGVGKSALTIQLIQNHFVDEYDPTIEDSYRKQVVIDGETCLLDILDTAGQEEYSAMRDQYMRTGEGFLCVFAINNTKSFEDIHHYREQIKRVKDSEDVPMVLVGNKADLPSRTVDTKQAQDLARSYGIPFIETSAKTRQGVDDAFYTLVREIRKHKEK
smiles,measurement,setting,value
"C=CC(=O)N1CC2(CCN(c3nc4c(c(-c5ccccc5F)c3C#N)CCC(c3scnc3CO)=C4)C2)C1 [Example 23-56, 4-(2-fluorophenyl)-7-(4-(hydroxymethyl)-1,3-thiazol-5-yl)-2-(2-(2-propenoyl)-2,6-diazaspiro[3.4]octan-6-yl)-5,6-dihydro-3-quinolinecarbonitrile]",IC50,[1],128 nM
same,IC50,"[2]; Homo sapiens, MIA PaCa-2, 72 h",487 nM
same,IC50,"[3]; Homo sapiens, A549, 72 h",> 5000 nM
"C=CC(=O)N1CC2(CCN(c3nc4c(c(-c5cccc6cc(O)ccc56)c3C)CCN(C3COC3)C4)C2)C1 [Example 18-7, 1-(6-(4-(6-hydroxy-1-naphthalenyl)-3-methyl-7-(3-oxetanyl)-5,6,7,8-tetrahydro-1,7-naphthyridin-2-yl)-2,6-diazaspiro[3.4]octan-2-yl)-2-propen-1-one]",IC50,[1],71 nM
same,IC50,"[2]; Homo sapiens, MIA PaCa-2, 72 h",64 nM
same,IC50,"[3]; Homo sapiens, A549, 72 h",> 5000 nM
"C=CC(=O)N1CC2(CCN(c3nc4c(c(-c5cc(O)cc6ccccc56)c3C)COC(C)(C)C4)C2)C1 [Example 14-26, 1-(6-(4-(3-hydroxy-1-naphthalenyl)-3,7,7-trimethyl-7,8-dihydro-5H-pyrano[4,3-b]pyridin-2-yl)-2,6-diazaspiro[3.4]octan-2-yl)-2-propen-1-one]",IC50,[1],67 nM
same,IC50,"[2]; Homo sapiens, MIA PaCa-2, 72 h",76 nM
same,IC50,"[3]; Homo sapiens, A549, 72 h",> 5000 nM
"C=C(Cl)C(=O)N1CC2(CCN(c3nc4c(c(-c5c(C)ccc6[nH]ncc56)c3C#N)CCC(C)(C)C4)C2)C1 [Example 13-3, 2-(2-(2-chloro-2-propenoyl)-2,6-diazaspiro[3.4]octan-6-yl)-7,7-dimethyl-4-(5-methyl-1H-indazol-4-yl)-5,6,7,8-tetrahydro-3-quinolinecarbonitrile]",IC50,[1]; [4],166 nM
same,IC50,"[2]; Homo sapiens, MIA PaCa-2, 72 h",625 nM
same,IC50,"[3]; Homo sapiens, A549, 72 h",1250 nM
"C=CC(=O)N1CC2(CCN(c3nc4c(c(-c5c(C)ccc6[nH]ncc56)c3Cl)COC(C)(C)C4)C2)C1 [Example 2-83, 1-(6-(3-chloro-7,7-dimethyl-4-(5-methyl-1H-indazol-4-yl)-7,8-dihydro-5H-pyrano[4,3-b]pyridin-2-yl)-2,6-diazaspiro[3.4]octan-2-yl)-2-propen-1-one]",IC50,[1]; [4],33 nM
same,IC50,"[2]; Homo sapiens, MIA PaCa-2, 72 h",17 nM
same,IC50,"[3]; Homo sapiens, A549, 72 h",12200 nM
"C=CC(=O)N1CC2(CCN(c3nc4c(c(-c5c(O)cccc5F)c3C#N)CCC(c3scnc3C)=C4)C2)C1 (single isomer, unassigned) [Example 23-51, (M)-4-(2-fluoro-6-hydroxyphenyl)-7-(4-methyl-1,3-thiazol-5-yl)-2-(2-(2-propenoyl)-2,6-diazaspiro[3.4]octan-6-yl)-5,6-dihydro-3-quinolinecarbonitrile]",IC50,[1],127000 nM
same,IC50,[2]; 72 h,6220 nM
same,IC50,[3]; 72 h,9640 nM
"C=CC(=O)N1CC2(C1)CN(c1nc3c(c(-c4c(C)ccc5[nH]ncc45)c1C#N)CCC(C)C3)CC2(F)F (stereo not drawn) [Example 2-5, 2-(8,8-difluoro-2-(2-propenoyl)-2,6-diazaspiro[3.4]octan-6-yl)-7-methyl-4-(5-methyl-1H-indazol-4-yl)-5,6,7,8-tetrahydro-3-quinolinecarbonitrile]",IC50,[1]; [4],42 nM
same,IC50,"[2]; Homo sapiens, MIA PaCa-2, 72 h",943 nM
same,IC50,"[3]; Homo sapiens, A549, 72 h",6250 nM
"C=CC(=O)N1CC2(CCN(c3nc(-c4cc(O)cc5ccccc45)c4ncc(C)cc4n3)C2)C1 [Example 1-22, 1-(6-(4-(3-hydroxy-1-naphthalenyl)-7-methylpyrido[3,2-d]pyrimidin-2-yl)-2,6-diazaspiro[3.4]octan-2-yl)-2-propen-1-one]",IC50,[1]; [4],1140 nM
same,IC50,"[2]; Homo sapiens, MIA PaCa-2, 72 h",4260 nM
same,IC50,"[3]; Homo sapiens, A549, 72 h",> 25000 nM
"C=CC(=O)N1CC2(CCN(c3nc4c(c(-c5c(C)ccc6[nH]ncc56)n3)CCC(C)C4)C2)C1 (stereo not drawn) [Example 1-11, 1-(6-((7)-7-methyl-4-(5-methyl-1H-indazol-4-yl)-5,6,7,8-tetrahydro-2-quinazolinyl)-2,6-diazaspiro[3.4]octan-2-yl)-2-propen-1-one]",IC50,[1]; [4],3090 nM
same,IC50,"[2]; Homo sapiens, MIA PaCa-2, 72 h",> 5000 nM
same,IC50,"[3]; Homo sapiens, A549, 72 h",> 5000 nM
"C=CC(=O)N1CC2(CCN(c3nc4c(c(-c5c(C)ccc6cnn(C)c56)c3C#N)COC(C)(C)C4)C2)C1 (single isomer, unassigned) [Example 13-60, (P)-4-(1,6-dimethyl-1H-indazol-7-yl)-7,7-dimethyl-2-(2-(2-propenoyl)-2,6-diazaspiro[3.4]octan-6-yl)-7,8-dihydro-5H-pyrano[4,3-b]pyridine-3-carbonitrile]",IC50,[1]; [4],63 nM
same,IC50,"[2]; Homo sapiens, MIA PaCa-2, 72 h",146 nM
same,IC50,"[3]; Homo sapiens, A549, 72 h",> 5000 nM
"C=CC(=O)N1CC2(CCN(c3nc4c(c(-c5ccc(F)cc5Cl)c3C#N)COC(c3scnc3C)C4)C2)C1 [Example 23-20, (7R)-4-(2-chloro-4-fluorophenyl)-7-(4-methyl-1,3-thiazol-5-yl)-2-(2-(2-propenoyl)-2,6-diazaspiro[3.4]octan-6-yl)-7,8-dihydro-5H-pyrano[4,3-b]pyridine-3-carbonitrile (7S)-4-(2-chloro-4-fluorophenyl)-7-(4-methyl-1,3-thiazol-5-yl)-2-(2-(2-propenoyl)-2,6-diazaspiro[3.4]octan-6-yl)-7,8-dihydro-5H-pyrano[4,3-b]pyridine-3-carbonitrile]",IC50,[1],227 nM
same,IC50,"[2]; Homo sapiens, MIA PaCa-2, 72 h",1150 nM
same,IC50,"[3]; Homo sapiens, A549, 72 h",8250 nM
"C=CC(=O)N1CC2(CCN(c3nc4c(c(-c5c(C)ccc6[nH]ncc56)c3C#N)CCCC4)C2)C1 [Example 2-8, 4-(5-methyl-1H-indazol-4-yl)-2-(2-(2-propenoyl)-2,6-diazaspiro[3.4]octan-6-yl)-5,6,7,8-tetrahydro-3-quinolinecarbonitrile]",IC50,[1]; [4],59 nM
same,IC50,"[2]; Homo sapiens, MIA PaCa-2, 72 h",554 nM
same,IC50,"[3]; Homo sapiens, A549, 72 h",3640 nM
"C=CC(=O)N1CC2(CCN(c3nc4c(c(-c5ccccc5F)c3C#N)CCN(CCCOC)C4)C2)C1 [Example 21-39, 4-(2-fluorophenyl)-7-(3-methoxypropyl)-2-(2-(2-propenoyl)-2,6-diazaspiro[3.4]octan-6-yl)-5,6,7,8-tetrahydro-1,7-naphthyridine-3-carbonitrile]",IC50,[1],1120 nM
same,IC50,"[2]; Homo sapiens, MIA PaCa-2, 72 h",7180 nM
same,IC50,"[3]; Homo sapiens, A549, 72 h",17600 nM
"C=CC(=O)N1CC2(CCN(c3nc4cc(-n5ccnc5C)ccc4c(-c4ccccc4Cl)c3C#N)C2)C1 [Example 17-3, 4-(2-chlorophenyl)-7-(2-methyl-1H-imidazol-1-yl)-2-(2-(2-propenoyl)-2,6-diazaspiro[3.4]octan-6-yl)-3-quinolinecarbonitrile]",IC50,[1],36 nM
same,IC50,"[2]; Homo sapiens, MIA PaCa-2, 72 h",684 nM
same,IC50,"[3]; Homo sapiens, A549, 72 h",1880 nM
"C=CC(=O)N1CC2(CCN(c3nc4c(c(-c5c(C)ccc6[nH]ncc56)c3C#N)CCCC4(F)F)C2)C1 [Example 13-96, 2-(2-acryloyl-2,6-diazaspiro[3.4]octan-6-yl)-8,8-difluoro-4-(5-methyl-1H-indazol-4-yl)-5,6,7,8-tetrahydroquinoline-3-carbonitrile]",IC50,[1]; [4],325 nM
same,IC50,"[2]; Homo sapiens, MIA PaCa-2, 72 h",> 5000 nM
same,IC50,"[3]; Homo sapiens, A549, 72 h",> 5000 nM
"C=CC(=O)N1CC2(CCN(c3cn4ncnc4c(-c4c(C)ccc5[nH]ncc45)c3C#N)C2)C1 [Example 1-48, 8-(5-methyl-1H-indazol-4-yl)-6-(2-(2-propenoyl)-2,6-diazaspiro[3.4]octan-6-yl)[1,2,4]triazolo[1,5-a]pyridine-7-carbonitrile]",IC50,[1]; [4],554 nM
same,IC50,"[2]; Homo sapiens, MIA PaCa-2, 72 h",> 5000 nM
same,IC50,"[3]; Homo sapiens, A549, 72 h",> 5000 nM
"C=CC(=O)N1CC2(CCN(c3nc4c(c(-c5ccc(F)cc5F)c3C)CCN(c3scnc3C)C4)C2)C1 [Example 18-12, 1-(6-(4-(2,4-difluorophenyl)-3-methyl-7-(4-methyl-1,3-thiazol-5-yl)-5,6,7,8-tetrahydro-1,7-naphthyridin-2-yl)-2,6-diazaspiro[3.4]octan-2-yl)-2-propane-1-one]",IC50,[1],172 nM
same,IC50,"[2]; Homo sapiens, MIA PaCa-2, 72 h",335 nM
same,IC50,"[3]; Homo sapiens, A549, 72 h",12500 nM
